In US10336702B2, “Pharmaceutically active compounds” (BERGENBIO ASA, priority 2015, dated 2019) one finds IC50 data, which are given here for 14 compounds.

For one assay, the target named is T1, Akt1 (Homo sapiens, UniProt P31749).
T1 construct: unspecified tag, removed (detagged) (cleaved yes); purchased SignalChem and Proteros (Akt1); Merck Millipore (PDK1) 14-452 (PDK1); none given for Akt1
As to the kind of experiment: Akt activation assay (PDK1-mediated activation, LANCE Ultra crosstide TR-FRET), Akt1. The class given is biochemical. The settings on record: read-out: Biological Assay 1 IC50 (nM) Akt1. The method in brief:
(§1)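 Compound + Akt preinc.; start w/ PDK1 5 nM, DOPS/DOPC 5.5 μM each, PIP3 0.55 μM, ATP 100 μM, Ulight-crosstide 100 nM; HEPES pH 7.5, 10 mM MgCl2, 2 mM DTT, 1% DMSO; 30 min; EDTA stop; Eu-Ab TR-FRET; 4-PL IC50.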
In general terms: In TR-FRET formats the signal depends on donor and acceptor labels being close together.

For the next assay, the target named is T2, Akt2 (Homo sapiens, UniProt P31751).
T2 construct: unspecified tag, removed (detagged) (cleaved yes); purchased SignalChem and Proteros (Akt2); Merck Millipore (PDK1) 14-452 (PDK1); none given for Akt2
Put plainly: Akt activation assay (PDK1-mediated activation, LANCE Ultra crosstide TR-FRET), Akt2. The settings on record: read-out: Biological Assay 1 IC50 (nM) Akt2. The format is biochemical. In a few lines: as §1

Another assay addresses T3, Akt3 (Homo sapiens, UniProt Q9Y243).
T3 construct: unspecified tag, removed (detagged) (cleaved yes); purchased SignalChem and Proteros (Akt3); Merck Millipore (PDK1) 14-452 (PDK1); none given for Akt3
As to the kind of experiment: Akt activation assay (PDK1-mediated activation, LANCE Ultra crosstide TR-FRET), Akt3. The format is biochemical. The settings on record: read-out: Biological Assay 1 IC50 (nM) Akt3. The method in brief:
as §1

The target in the next assay is T4, p-Akt1 in LNCaP cells (Homo sapiens, UniProt P31749).
T4 construct: SureFire assays to detect cellular p-Akt1, p-Akt2 and p-Akt3 levels in WM115 cells (Akt2/3) and LNCaP cells (Akt1); endogenous in cells; host or cells: LNCaP (ECACC 89110211)
As to the kind of experiment: Phospho-Akt cellular SureFire assay, p-Akt1 in LNCaP cells. The format is cell-based. The settings on record: read-out: Biological Assay 2 IC50 (nM) Akt1 LNCaP. In a few lines: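 LNCaP cells, 5×10^4/well, seeded overnight, switched to 0.1% FBS medium without insulin stimulation, then compound for 15 min at 37 °C (0.3% DMSO). Lysate p-Akt1 (pThr308) by AlphaScreen SureFire, two 2 h incubations at room temperature; IC50 by 4-parameter fit.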

The next assay concerns the target T5, p-Akt2 in WM115 cells (Homo sapiens, UniProt P31751).
T5 construct: SureFire assays to detect cellular p-Akt1, p-Akt2 and p-Akt3 levels in WM115 cells (Akt2/3) and LNCaP cells (Akt1); endogenous in cells; host or cells: WM115 (ECACC 91061232), insulin-stimulated
As to the kind of experiment: Phospho-Akt cellular SureFire assay, p-Akt2 in WM115 cells. The settings on record: insulin stimulated, read-out: Biological Assay 2 IC50 (nM) Akt2 WM115. The format is cell-based. In a few lines: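 WM115 cells in 0.1% FBS medium stimulated 10 min with 100 nM insulin, then exposed to compound for 15 min at 37° C (0.3% DMSO final). Lysates assayed by AlphaScreen with anti-(pThr308)Akt and isoform-specific total Akt2 antibodies; IC50 from 4-parameter fit.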

The target of the next assay is T6, p-Akt3 in WM115 cells (Homo sapiens, UniProt Q9Y243).
T6 construct: SureFire assays to detect cellular p-Akt1, p-Akt2 and p-Akt3 levels in WM115 cells (Akt2/3) and LNCaP cells (Akt1); endogenous in cells; host or cells: WM115 (ECACC 91061232), insulin-stimulated
Put plainly: Phospho-Akt cellular SureFire assay, p-Akt3 in WM115 cells. The format is cell-based. The settings on record: insulin stimulated, read-out: Biological Assay 2 IC50 (nM) Akt3 WM115. The method in brief:
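WM115 cells were serum-reduced to 0.1% FBS, stimulated with 100 nM insulin for 10 min, then exposed to compound (0.3% DMSO) for 15 min at 37 °C. Lysates were assayed for Thr308-phosphorylated Akt3 by AlphaScreen SureFire using an isoform-specific total Akt3 capture antibody. IC50 was derived from a 4-parameter fit.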

T6 sequence (Q9Y243 whole entry): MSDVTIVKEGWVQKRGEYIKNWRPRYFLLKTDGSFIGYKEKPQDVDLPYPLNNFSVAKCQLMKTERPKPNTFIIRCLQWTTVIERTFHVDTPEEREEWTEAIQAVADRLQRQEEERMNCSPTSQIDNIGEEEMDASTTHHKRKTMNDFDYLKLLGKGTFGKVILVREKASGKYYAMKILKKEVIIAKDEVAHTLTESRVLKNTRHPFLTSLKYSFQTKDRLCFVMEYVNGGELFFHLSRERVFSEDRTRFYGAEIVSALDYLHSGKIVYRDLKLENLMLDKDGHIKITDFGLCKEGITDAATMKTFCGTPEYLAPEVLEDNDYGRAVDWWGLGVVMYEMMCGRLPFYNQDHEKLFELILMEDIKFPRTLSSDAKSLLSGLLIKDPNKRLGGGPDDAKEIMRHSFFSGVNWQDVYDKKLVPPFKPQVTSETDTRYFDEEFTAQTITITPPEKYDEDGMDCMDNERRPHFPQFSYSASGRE
T3 sequence (Q9Y243 whole entry): as above
T4 sequence (P31749 whole entry): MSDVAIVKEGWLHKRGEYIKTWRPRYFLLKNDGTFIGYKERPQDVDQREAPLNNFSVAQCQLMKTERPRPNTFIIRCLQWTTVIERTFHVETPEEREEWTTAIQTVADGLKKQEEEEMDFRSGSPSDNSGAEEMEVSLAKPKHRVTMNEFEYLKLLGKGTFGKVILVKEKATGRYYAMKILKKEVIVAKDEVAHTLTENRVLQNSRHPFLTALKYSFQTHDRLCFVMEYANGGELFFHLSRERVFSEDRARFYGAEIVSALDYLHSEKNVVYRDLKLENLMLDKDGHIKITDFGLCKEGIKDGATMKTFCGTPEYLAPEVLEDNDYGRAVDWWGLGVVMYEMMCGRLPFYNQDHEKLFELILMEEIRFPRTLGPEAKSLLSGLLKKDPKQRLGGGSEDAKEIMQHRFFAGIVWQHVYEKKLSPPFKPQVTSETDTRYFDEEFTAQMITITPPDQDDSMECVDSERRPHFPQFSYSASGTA
T1 sequence (P31749 whole entry): as above
T5 sequence (P31751 whole entry): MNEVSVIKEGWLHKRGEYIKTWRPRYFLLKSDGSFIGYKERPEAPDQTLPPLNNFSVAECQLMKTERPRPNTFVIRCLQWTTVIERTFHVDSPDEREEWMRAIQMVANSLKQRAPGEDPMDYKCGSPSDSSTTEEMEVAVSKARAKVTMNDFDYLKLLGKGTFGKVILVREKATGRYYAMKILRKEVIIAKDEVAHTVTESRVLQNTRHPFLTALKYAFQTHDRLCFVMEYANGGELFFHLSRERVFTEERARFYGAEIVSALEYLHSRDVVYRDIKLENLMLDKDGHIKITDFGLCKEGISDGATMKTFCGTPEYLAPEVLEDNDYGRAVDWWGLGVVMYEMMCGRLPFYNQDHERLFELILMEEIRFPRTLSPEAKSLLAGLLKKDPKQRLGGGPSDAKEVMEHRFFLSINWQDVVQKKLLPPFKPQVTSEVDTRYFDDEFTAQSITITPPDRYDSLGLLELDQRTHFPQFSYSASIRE
T2 sequence (P31751 whole entry): as above

By IC50 is commonly meant the point on the concentration scale where inhibition reaches its midpoint. Turning to `CC(=O)N(C(C)C)[C@H]1CC[C@H](CC(=O)Nc2cnc(-c3ccc(C(C)(C)N)cc3)c(-c3ccccc3)c2)CC1` [Example A44, N-(6-(4-(2-aminopropan-2-yl)phenyl)-5-phenylpyridin-3-yl)-2-(trans-4-(N-isopropylacetamido)cyclohexyl)acetamide], the IC50 was > 30000 nM at Akt1; 13000 nM on Akt2; 1800 nM on Akt3; > 30000 nM at p-Akt1 in LNCaP cells; 11000 nM at p-Akt2 in WM115 cells; 440 nM at p-Akt3 in WM115 cells.
For `CC(C)(N)c1ccc(-c2ncc(NC(=O)C[C@H]3CC[C@H](C(=O)N4CCOCC4)CC3)cc2-c2ccccc2)cc1` [Example A46, N-(6-(4-(2-aminopropan-2-yl)phenyl)-5-phenylpyridin-3-yl)-2-(trans-4-(morpholine-4-carbonyl)cyclohexyl)acetamide], the IC50 is > 30000 nM on Akt1; 2400 nM at Akt2; 1000 nM at Akt3; > 30000 nM on p-Akt1 in LNCaP cells; 6300 nM on p-Akt2 in WM115 cells; 190 nM on p-Akt3 in WM115 cells.
With `CC(C)(N)c1ccc(-c2ncc(NC(=O)C[C@H]3CC[C@H](C(=O)N4CCCC4)CC3)cc2-c2ccccc2)cc1` [Example A47, N-(6-(4-(2-aminopropan-2-yl)phenyl)-5-phenylpyridin-3-yl)-2-(trans-4-(pyrrolidine-1-carbonyl)cyclohexyl)acetamide], the IC50 was > 30000 nM on Akt1; 2100 nM at Akt2; 370 nM at Akt3; > 30000 nM on p-Akt1 in LNCaP cells; 11000 nM at p-Akt2 in WM115 cells; 440 nM on p-Akt3 in WM115 cells.
For the compound `CC(C)(N)c1ccc(-c2cnc(NC(=O)C[C@H]3CC[C@H](N4CCCC4=O)CC3)cc2-c2ccccc2)cc1` [Example A49, N-(5-(4-(2-aminopropan-2-yl)phenyl)-4-phenylpyridin-2-yl)-2-(trans-4-(2-oxopyrrolidin-1-yl)cyclohexyl)acetamide], the IC50 on Akt1 is > 30000 nM; at Akt2 it was 3600 nM; at Akt3 it was 120 nM; on p-Akt1 in LNCaP cells, > 30000 nM; on p-Akt2 in WM115 cells, 4400 nM; on p-Akt3 in WM115 cells, 200 nM.
In the case of `NC1(c2ccc(-c3nnc(NC(=O)C[C@H]4CC[C@H](N5CCOC5=O)CC4)cc3-c3ccccc3)cc2F)CC1` [Example A50, N-(6-(4-(1-aminocyclopropyl)-3-fluorophenyl)-5-phenylpyridazin-3-yl)-2-(trans-4-(2-oxooxazolidin-3-yl)cyclohexyl)acetamide], the IC50 is > 30000 nM at Akt1; 2200 nM at Akt2; 140 nM at Akt3; > 30000 nM at p-Akt1 in LNCaP cells; > 3790 nM on p-Akt2 in WM115 cells; 270 nM at p-Akt3 in WM115 cells.
In the case of `NC1(c2ccc(-c3cnc(NC(=O)C[C@H]4CC[C@H](N5CCOC5=O)CC4)cc3-c3ccccc3)cc2)CC1` [Example A51, N-(5-(4-(1-aminocyclopropyl)phenyl)-4-phenylpyridin-2-yl)-2-(trans-4-(2-oxooxazolidin-3-yl)cyclohexyl)acetamide], the IC50 was > 30000 nM at Akt1; 340 nM at Akt2; 42 nM on Akt3; > 30000 nM at p-Akt1 in LNCaP cells; 2000 nM at p-Akt2 in WM115 cells; 150 nM at p-Akt3 in WM115 cells.
As to `CC(C)(N)c1ccc(-c2cnc(NC(=O)C[C@H]3CC[C@H](N4CCOC4=O)CC3)cc2-c2ccsc2)cc1` [Example A52, N-(5-(4-(2-aminopropan-2-yl)phenyl)-4-(thiophen-3-yl)pyridin-2-yl)-2-(trans-4-(2-oxooxazolidin-3-yl)cyclohexyl)acetamide], the IC50 is > 30000 nM at Akt1; 11000 nM on Akt2; 640 nM at Akt3; > 30000 nM on p-Akt1 in LNCaP cells; 2600 nM at p-Akt2 in WM115 cells; 240 nM on p-Akt3 in WM115 cells.
Take `N[C@]1(c2ccc(-c3cnc(NC(=O)C[C@H]4CC[C@H](N5CCOC5=O)CC4)cc3-c3ccccc3)cc2)C[C@@H](F)C1` [Example A53, N-(5-(4-(trans-1-amino-3-fluorocyclobutyl)phenyl)-4-phenylpyridin-2-yl)-2-(trans-4-(2-oxooxazolidin-3-yl)cyclohexyl)acetamide]: the IC50 was > 30000 nM at Akt1; 480 nM at Akt2; 39 nM at Akt3; > 30000 nM on p-Akt1 in LNCaP cells; 5400 nM on p-Akt2 in WM115 cells; 410 nM at p-Akt3 in WM115 cells.
As for `CC(=O)N(C)[C@H]1CC[C@H](CC(=O)Nc2cc(-c3ccccc3)c(-c3ccc(C4(N)CC4)c(F)c3)nn2)CC1` [Example A54, N-(6-(4-(1-aminocyclopropyl)-3-fluorophenyl)-5-phenylpyridazin-3-yl)-2-(trans-4-(N-methylacetamido)cyclohexyl)acetamide], the IC50 at Akt1 was > 30000 nM; at Akt2, 6300 nM; at Akt3, 160 nM; on p-Akt1 in LNCaP cells it was > 30000 nM; at p-Akt2 in WM115 cells, > 13000 nM; at p-Akt3 in WM115 cells it was 520 nM.
For `COC(=O)N(C)[C@H]1CC[C@H](CC(=O)Nc2cc(-c3ccccc3)c(-c3ccc(C4(N)CCC4)cc3)nn2)CC1` [Example A55, Methyl (trans-4-(2-((6-(4-(1-aminocyclobutyl)phenyl)-5-phenylpyridazin-3-yl)amino)-2-oxoethyl)cyclohexyl)(methyl)carbamate], the IC50 at Akt1 is > 16000 nM; at Akt2 it was 380 nM; at Akt3 it was 16 nM; on p-Akt1 in LNCaP cells, > 30000 nM; on p-Akt2 in WM115 cells it was 5000 nM; on p-Akt3 in WM115 cells, 310 nM.
As to `CC(=O)N(C)[C@H]1CC[C@H](CC(=O)Nc2cc(-c3ccccc3)c(-c3ccc([C@]4(N)C[C@H](F)C4)cc3)cn2)CC1` [Example A59, N-(5-(4-((1r,3r)-1-amino-3-fluorocyclobutyl)phenyl)-4-phenylpyridin-2-yl)-2-(trans-4-(N-methylacetamido)cyclohexyl)acetamide], the IC50 was > 30000 nM at Akt1; 740 nM on Akt2; 28 nM at Akt3; 9700 nM at p-Akt1 in LNCaP cells; 8000 nM at p-Akt2 in WM115 cells; 250 nM at p-Akt3 in WM115 cells.
Regarding `COC(=O)N(C)[C@H]1CC[C@H](CC(=O)Nc2cc(-c3ccccc3)c(-c3ccc(C4(N)CCC4)cc3)cn2)CC1` [Example A61, Methyl (trans-4-(2-((5-(4-(1-aminocyclobutyl)phenyl)-4-phenylpyridin-2-yl)amino)-2-oxoethyl)cyclohexyl)(methyl)carbamate], the IC50 on Akt1 is > 30000 nM; at Akt2 it was 1300 nM; at Akt3, 77 nM; at p-Akt1 in LNCaP cells it was > 30000 nM; on p-Akt2 in WM115 cells, > 27000 nM; at p-Akt3 in WM115 cells, 910 nM.
For the compound `CC(=O)N(C)[C@H]1CC[C@H](CC(=O)Nc2cc(-c3ccccc3F)c(-c3ccc(C4(N)CCC4)cc3)cn2)CC1` [Example A62, N-(5-(4-(1-aminocyclobutyl)phenyl)-4-(2-fluorophenyl)pyridin-2-yl)-2-(trans-4-(N-methylacetamido)cyclohexyl)acetamide], the IC50 at Akt1 is > 30000 nM; at Akt2, 1100 nM; at Akt3, 57 nM; at p-Akt1 in LNCaP cells, 7100 nM; at p-Akt2 in WM115 cells, 1200 nM; on p-Akt3 in WM115 cells it was 81 nM.
With `COC(=O)N(C)[C@H]1CC[C@H](CC(=O)Nc2cc(-c3ccccc3F)c(-c3ccc(C4(N)CCC4)cc3)cn2)CC1` [Example A63, Methyl (trans-4-(2-((5-(4-(1-aminocyclobutyl)phenyl)-4-(2-fluorophenyl)pyridin-2-yl)amino)-2-oxoethyl)cyclohexyl)(methyl)carbamate], the IC50 was > 30000 nM on Akt1; 5700 nM on Akt2; 120 nM at Akt3; > 30000 nM on p-Akt1 in LNCaP cells; 6100 nM on p-Akt2 in WM115 cells; 470 nM at p-Akt3 in WM115 cells.
